Measured values reported in ChEMBL document CHEMBL5149994, “Anticancer potential of indirubins in medicinal chemistry: Biological activity, structural modification, and structure-activity relationship” (Eur J Med Chem, 2021).

Tests used:
[1] = Antitumor activity against mouse 4T1-Luc cells xenografted in BALB/c mouse assessed as decrease in lung metastasis at 1 mg/kg, iv measured after 8 days […]; format: functional; parameters: scale not given: the % may be the effect or the level left; conditions: time 8 day
[2] = system: A2058; assay: Antitumor activity against human A2058 cells xenografted in BALB/c mouse assessed as reduction in tumour volume at 50 mg/kg per day, po administered via oral gavage treated every other day for 14 days relative to control; format: functional; parameters: scale not given: the % may be the effect or the level left; conditions: time 14 day
[3] = system: MCF7; assay: Antiproliferative activity against human MCF7 cells assessed as cell growth inhibition at 10 uM by crystal violet staining based assay relative to control; format: functional; parameters: scale not given: the % may be the effect or the level left
[4] = system: IMR-32; assay: Antiproliferative activity against human IMR-32 cells assessed as cell growth inhibition; format: functional, cell-based
[5] = system: SK-N-SH; assay: Antiproliferative activity against human SK-N-SH cells assessed as cell growth inhibition; format: functional, cell-based
[6] = system: LXFL 529; assay: Cytotoxicity against human LXFL 529 cells assessed as cell growth inhibition measured after 3 days by SRB assay; format: functional, cell-based; conditions: LXFL 529, 72 h
[7] = biological target: Receptor-type tyrosine-protein kinase FLT3 (Homo sapiens, UniProt P36888, D835Y); assay: Inhibition of recombinant FLT3 D835Y mutant (unknown origin) in presence of ATP by HTRF assay
[8] = system: MCF7; assay: Cytotoxicity against human MCF7 cells assessed as cell growth inhibition measured after 3 days by SRB assay; format: functional, cell-based; conditions: MCF7, 72 h
[9] = Antiproliferative activity against human NOZ cells assessed as cell growth inhibition measured upto 72 hrs by CCK-8 assay; format: functional, cell-based
[10] = biological target: Tyrosine-protein kinase Lck (Homo sapiens, UniProt P06239); assay: Inhibition of LCK (unknown origin) in presence of ATP
[11] = biological target: Serine/threonine-protein kinase Sgk1 (Homo sapiens, UniProt O00141); assay: Inhibition of SGK (unknown origin) in presence of ATP
[12] = biological target: T1, CDK2/Cyclin A2 (Homo sapiens, UniProt P24941); assay: Inhibition of CDK2/cyclin A (unknown origin); format: protein-complex assay
[13] = biological target: T2, Receptor-type tyrosine-protein kinase FLT3 (Homo sapiens, UniProt P36888); assay: Inhibition of recombinant FLT3 (unknown origin) in presence of ATP by HTRF assay
T2 sequence (P36888 whole entry): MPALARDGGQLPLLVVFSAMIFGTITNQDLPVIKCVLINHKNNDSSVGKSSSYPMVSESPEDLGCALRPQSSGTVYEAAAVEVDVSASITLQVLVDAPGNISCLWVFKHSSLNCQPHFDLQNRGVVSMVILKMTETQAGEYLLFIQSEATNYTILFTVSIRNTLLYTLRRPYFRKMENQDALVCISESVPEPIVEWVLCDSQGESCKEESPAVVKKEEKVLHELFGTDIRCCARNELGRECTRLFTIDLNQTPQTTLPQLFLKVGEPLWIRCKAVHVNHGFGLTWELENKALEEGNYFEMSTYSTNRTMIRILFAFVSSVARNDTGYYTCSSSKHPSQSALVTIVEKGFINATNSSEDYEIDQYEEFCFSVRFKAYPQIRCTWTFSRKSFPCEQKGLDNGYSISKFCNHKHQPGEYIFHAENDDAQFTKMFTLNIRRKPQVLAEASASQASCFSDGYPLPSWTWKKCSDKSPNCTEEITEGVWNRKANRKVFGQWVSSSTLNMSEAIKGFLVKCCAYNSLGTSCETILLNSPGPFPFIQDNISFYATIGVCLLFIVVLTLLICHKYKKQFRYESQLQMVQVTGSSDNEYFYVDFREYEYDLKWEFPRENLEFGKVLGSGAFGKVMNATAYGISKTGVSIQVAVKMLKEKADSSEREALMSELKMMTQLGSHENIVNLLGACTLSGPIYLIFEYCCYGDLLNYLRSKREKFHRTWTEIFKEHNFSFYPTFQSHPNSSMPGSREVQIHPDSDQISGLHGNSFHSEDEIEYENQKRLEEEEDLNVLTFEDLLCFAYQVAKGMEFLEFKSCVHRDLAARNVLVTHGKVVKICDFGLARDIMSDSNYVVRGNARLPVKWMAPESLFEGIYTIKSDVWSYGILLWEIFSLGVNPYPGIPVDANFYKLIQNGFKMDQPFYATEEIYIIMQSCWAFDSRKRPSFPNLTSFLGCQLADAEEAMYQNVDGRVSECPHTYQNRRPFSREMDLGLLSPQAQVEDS

[14] = biological target: Cyclin-dependent kinase 4/cyclin D1 (Homo sapiens, UniProt P11802); assay: Inhibition of CDK4/cyclin D1 (unknown origin); format: protein-complex assay
[15] = system: HL-60; assay: Antiproliferative activity against human HL-60 cells assessed as cell growth inhibition measured after 3 days by trypan blue staining based inverted microscope method; format: functional; conditions: HL-60, 72 h, time 3 day
[16] = system: MV4-11; assay: Antiproliferative activity against human MV4-11 cells assessed as cell growth inhibition measured after 72 hrs by tetrazolium staining based WST-8 assay; format: functional; conditions: MV4-11, 72 h
[17] = biological target: T1, CDK2/Cyclin A2; assay: Inhibition of GST-fused human CDK2/cyclin A expressed in Escherichia coli using histone H1 as substrate in presence of [33p]-gamma ATP and MgATP
[18] = system: A549; assay: Antitumor activity against human A549 cells xenografted in CD1 mouse assessed as reduction in tumour volume at 6 mg/kg, sc treated 3 times a week for 25 days in presence of thymoquinone relative to control; format: functional; parameters: scale not given: the % may be the effect or the level left; conditions: time 25 day
[19] = system: HuCCT-1; assay: Antiproliferative activity against human HuCCT-1 cells assessed as cell growth inhibition measured upto 72 hrs by CCK-8 assay; format: functional, cell-based; conditions: HuCCT-1, 72 h
[20] = Inhibition of CDK2/cyclin E (unknown origin); parameters: species or system Homo sapiens
[21] = system: HUVEC; assay: Antiproliferative activity against HUVEC cells assessed as cell growth inhibition measured after 3 days by [3H]-thymidine incorporation assay; format: functional, cell-based; conditions: Homo sapiens
[22] = Inhibition of VEGFR (unknown origin); parameters: species or system Homo sapiens
[23] = biological target: T2, Receptor-type tyrosine-protein kinase FLT3; assay: Inhibition of FLT3 (unknown origin)
[24] = organism: Danio rerio; assay: Antiangiogenic activity in transgenic zebrafish embryo assessed as inhibition of angiogenic vessel growth incubated for 24 hrs by FITC staining based analysis; format: functional, organism-based
[25] = system: A549; assay: Antitumor activity against human A549 cells xenografted in CD1 mouse assessed as reduction in tumour weight at 6 mg/kg, sc treated 3 times a week for 25 days in presence of thymoquinone relative to control; format: functional; parameters: scale not given: the % may be the effect or the level left; conditions: time 25 day
[26] = biological target: Fibroblast growth factor receptor 1 (Homo sapiens, UniProt P11362); assay: Inhibition of FGFR1 (unknown origin)
[27] = Antiproliferative activity against human OZ [Human cholangiocarcinoma] cells assessed as cell growth inhibition measured upto 72 hrs by CCK-8 assay; format: functional, cell-based
[28] = biological target: Glycogen synthase kinase-3 (Sus scrofa, UniProt B2LUN4+I6LNT8); assay: Inhibition of porcine brain GSK-3alpha/beta incubated for 30 mins in presence of [33p]-gamma ATP by scintillation counter analysis
[29] = biological target: Aurora kinase B (Homo sapiens, UniProt Q96GD4); assay: Inhibition of Aurora B (unknown origin)
[30] = Antiproliferative activity against human TT cells assessed as cell growth inhibition measured after 48 hrs by Cell titer-Glo assay; format: functional, cell-based
[31] = biological target: Aurora kinase C (Homo sapiens, UniProt Q9UQB9); assay: Inhibition of Aurora C (unknown origin)
[32] = Antitumor activity against human PDAC cells xenografted in BALB/c nu/nu mouse assessed as reduction in tumour weight at 40 mg/kg, ip treated every other day for 6 days relative to control; format: functional; parameters: scale not given: the % may be the effect or the level left; conditions: time 6 day
[33] = system: MV4-11; assay: Cytotoxicity in human MV4-11 cells assessed as cell growth inhibition incubated for 48 hrs by propidium iodide staining based flow cytometry assay; format: functional
[34] = biological target: T2, Receptor-type tyrosine-protein kinase FLT3; assay: Inhibition of recombinant FLT3 (unknown origin) by HTRF assay
[35] = system: HCT-116; assay: Antiproliferative activity against human HCT-116 cells assessed as cell growth inhibition; format: functional, cell-based
[36] = system: CT26; assay: Antitumor activity against mouse CT26 cells in BALB/c mouse assessed as reduction in tumour volume at 200 mg/kg, ILES daily measured after 15 days relative to control; format: functional; parameters: scale not given: the % may be the effect or the level left; conditions: time 15 day
[37] = biological target: Vascular endothelial growth factor receptor 2 (Homo sapiens, UniProt P35968); assay: Inhibition of VEGFR2 (unknown origin)
[38] = system: LXFL 529; assay: Antiproliferative activity against human LXFL 529 cells assessed as cell growth inhibition; format: functional, cell-based
[39] = system: CT26; assay: Antitumor activity against mouse CT26 cells in BALB/c mouse assessed as reduction in tumour weight at 200 mg/kg, ILES daily measured after 15 days relative to control; format: functional; parameters: scale not given: the % may be the effect or the level left; conditions: time 15 day
[40] = biological target: Proto-oncogene tyrosine-protein kinase Src (Homo sapiens, UniProt P12931); assay: Inhibition of c-SRC in human MDA-MB-468 cells in presence of [gamma-32P]ATP and ATP by immunoprecipitation method; format: cell-based
Chain of Proto-oncogene tyrosine-protein kinase Src (P12931 2-536 limits assumed): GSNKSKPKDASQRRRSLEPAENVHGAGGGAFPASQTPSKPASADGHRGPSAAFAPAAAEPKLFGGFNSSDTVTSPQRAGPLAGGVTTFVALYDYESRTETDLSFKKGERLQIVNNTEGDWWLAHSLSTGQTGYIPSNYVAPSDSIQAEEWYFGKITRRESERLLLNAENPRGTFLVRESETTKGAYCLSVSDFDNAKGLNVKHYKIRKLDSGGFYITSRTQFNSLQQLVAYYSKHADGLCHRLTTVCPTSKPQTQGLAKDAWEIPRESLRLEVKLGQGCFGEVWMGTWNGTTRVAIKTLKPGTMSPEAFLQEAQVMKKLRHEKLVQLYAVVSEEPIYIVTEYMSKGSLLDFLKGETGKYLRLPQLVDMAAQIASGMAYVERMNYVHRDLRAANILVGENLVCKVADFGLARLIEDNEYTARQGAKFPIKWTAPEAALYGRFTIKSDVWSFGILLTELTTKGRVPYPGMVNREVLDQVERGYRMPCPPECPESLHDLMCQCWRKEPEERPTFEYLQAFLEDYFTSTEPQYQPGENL

Chain of Fibroblast growth factor receptor 1 (P11362 whole entry): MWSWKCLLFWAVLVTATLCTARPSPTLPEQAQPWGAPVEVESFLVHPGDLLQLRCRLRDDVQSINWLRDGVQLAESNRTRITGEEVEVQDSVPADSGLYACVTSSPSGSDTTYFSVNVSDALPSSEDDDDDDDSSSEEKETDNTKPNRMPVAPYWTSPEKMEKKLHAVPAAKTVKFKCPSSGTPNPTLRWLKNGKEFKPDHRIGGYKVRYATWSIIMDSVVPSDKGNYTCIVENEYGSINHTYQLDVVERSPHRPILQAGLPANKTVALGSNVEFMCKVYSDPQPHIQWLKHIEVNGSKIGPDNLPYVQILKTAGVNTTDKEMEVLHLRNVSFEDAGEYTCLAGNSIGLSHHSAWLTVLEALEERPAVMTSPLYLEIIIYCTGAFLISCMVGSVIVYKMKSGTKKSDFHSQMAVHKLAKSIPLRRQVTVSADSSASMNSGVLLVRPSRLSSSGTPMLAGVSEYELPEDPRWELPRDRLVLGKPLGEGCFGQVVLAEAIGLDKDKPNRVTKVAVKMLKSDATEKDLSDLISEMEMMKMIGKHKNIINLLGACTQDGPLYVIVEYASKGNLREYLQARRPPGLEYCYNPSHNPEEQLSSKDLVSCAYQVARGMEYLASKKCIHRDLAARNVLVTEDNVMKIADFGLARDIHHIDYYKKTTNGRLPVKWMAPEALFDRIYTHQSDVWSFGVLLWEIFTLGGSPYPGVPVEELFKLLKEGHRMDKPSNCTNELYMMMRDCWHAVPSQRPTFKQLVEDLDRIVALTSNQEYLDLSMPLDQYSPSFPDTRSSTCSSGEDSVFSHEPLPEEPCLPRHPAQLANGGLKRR
Chain of Tyrosine-protein kinase Lck (P06239 whole entry): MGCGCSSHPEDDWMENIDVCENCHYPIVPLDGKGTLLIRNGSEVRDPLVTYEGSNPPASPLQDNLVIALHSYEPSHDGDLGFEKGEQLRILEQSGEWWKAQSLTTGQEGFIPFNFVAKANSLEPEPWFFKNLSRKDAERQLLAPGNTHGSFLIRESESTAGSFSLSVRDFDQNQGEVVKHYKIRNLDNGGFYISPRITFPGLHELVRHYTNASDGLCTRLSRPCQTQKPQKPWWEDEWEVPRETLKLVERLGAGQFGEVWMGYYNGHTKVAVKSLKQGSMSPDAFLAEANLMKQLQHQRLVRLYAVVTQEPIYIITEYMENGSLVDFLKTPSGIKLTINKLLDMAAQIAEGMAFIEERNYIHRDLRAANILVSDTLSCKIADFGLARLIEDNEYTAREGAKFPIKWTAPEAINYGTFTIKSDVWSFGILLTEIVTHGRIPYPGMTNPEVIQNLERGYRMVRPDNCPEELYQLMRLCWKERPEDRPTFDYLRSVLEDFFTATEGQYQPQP
Chain of Serine/threonine-protein kinase Sgk1 (O00141 whole entry): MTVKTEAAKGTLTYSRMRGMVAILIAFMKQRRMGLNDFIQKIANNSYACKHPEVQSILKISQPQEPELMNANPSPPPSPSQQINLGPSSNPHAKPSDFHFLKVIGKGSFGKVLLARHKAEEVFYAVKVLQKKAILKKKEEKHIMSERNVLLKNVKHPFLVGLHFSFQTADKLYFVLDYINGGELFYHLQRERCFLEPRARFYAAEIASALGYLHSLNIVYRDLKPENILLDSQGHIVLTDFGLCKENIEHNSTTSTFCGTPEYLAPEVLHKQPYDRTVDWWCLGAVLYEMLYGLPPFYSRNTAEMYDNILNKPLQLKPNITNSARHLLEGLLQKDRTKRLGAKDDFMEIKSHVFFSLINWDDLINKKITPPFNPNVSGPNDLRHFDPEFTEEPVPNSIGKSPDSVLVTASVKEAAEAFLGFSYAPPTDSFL
Chain of Aurora kinase C (Q9UQB9 whole entry): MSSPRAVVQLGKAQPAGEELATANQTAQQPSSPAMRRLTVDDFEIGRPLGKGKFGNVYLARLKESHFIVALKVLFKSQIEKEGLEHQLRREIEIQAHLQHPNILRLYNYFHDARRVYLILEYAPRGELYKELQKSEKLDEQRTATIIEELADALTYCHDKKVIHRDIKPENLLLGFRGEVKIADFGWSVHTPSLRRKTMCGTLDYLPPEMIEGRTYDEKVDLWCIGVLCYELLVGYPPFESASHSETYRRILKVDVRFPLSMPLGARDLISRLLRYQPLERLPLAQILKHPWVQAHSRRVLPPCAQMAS
Chain of Vascular endothelial growth factor receptor 2 (P35968 whole entry): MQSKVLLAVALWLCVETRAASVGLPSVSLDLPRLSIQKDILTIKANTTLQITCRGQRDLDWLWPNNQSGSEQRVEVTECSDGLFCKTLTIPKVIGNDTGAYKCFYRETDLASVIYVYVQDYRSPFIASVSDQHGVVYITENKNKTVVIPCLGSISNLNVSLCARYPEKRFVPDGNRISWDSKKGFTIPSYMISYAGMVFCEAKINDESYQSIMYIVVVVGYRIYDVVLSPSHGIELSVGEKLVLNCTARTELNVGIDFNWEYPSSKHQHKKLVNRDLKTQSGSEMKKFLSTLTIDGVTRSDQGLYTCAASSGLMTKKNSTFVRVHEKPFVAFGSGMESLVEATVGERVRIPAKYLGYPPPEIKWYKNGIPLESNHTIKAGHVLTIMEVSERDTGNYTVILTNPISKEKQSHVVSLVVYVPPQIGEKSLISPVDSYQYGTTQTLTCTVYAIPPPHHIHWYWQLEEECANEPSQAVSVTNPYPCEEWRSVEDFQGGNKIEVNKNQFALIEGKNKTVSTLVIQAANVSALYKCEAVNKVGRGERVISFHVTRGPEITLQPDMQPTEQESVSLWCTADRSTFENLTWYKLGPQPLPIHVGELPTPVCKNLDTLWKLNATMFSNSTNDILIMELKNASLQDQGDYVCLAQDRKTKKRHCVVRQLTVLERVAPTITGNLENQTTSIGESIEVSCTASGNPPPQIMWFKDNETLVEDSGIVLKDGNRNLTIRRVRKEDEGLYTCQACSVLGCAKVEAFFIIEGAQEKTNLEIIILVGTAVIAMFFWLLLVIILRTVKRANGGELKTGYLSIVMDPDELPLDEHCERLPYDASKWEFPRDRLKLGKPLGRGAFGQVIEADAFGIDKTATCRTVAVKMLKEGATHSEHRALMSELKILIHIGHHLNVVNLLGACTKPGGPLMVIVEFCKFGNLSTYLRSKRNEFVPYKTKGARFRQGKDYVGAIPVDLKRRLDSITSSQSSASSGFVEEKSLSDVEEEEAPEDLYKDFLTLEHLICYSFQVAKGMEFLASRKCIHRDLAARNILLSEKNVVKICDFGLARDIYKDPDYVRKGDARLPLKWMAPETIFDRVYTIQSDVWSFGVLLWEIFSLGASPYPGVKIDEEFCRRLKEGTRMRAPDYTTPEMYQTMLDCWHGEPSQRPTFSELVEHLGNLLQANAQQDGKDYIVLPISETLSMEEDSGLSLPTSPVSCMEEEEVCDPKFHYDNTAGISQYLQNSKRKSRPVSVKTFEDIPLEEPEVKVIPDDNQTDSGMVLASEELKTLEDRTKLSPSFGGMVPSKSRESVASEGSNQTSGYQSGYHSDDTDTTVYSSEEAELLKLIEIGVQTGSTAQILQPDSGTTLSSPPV
Chain of Aurora kinase B (Q96GD4 whole entry): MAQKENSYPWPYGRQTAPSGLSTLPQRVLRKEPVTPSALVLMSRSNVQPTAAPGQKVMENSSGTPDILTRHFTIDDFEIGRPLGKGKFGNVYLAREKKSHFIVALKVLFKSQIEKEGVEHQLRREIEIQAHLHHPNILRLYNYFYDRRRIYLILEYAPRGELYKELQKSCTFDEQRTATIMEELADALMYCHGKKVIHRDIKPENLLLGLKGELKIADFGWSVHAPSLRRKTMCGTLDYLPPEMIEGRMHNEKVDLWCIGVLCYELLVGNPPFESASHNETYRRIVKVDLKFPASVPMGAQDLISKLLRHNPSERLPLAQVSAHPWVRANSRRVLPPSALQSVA
Chain of Cyclin-dependent kinase 4/cyclin D1 (P11802 whole entry): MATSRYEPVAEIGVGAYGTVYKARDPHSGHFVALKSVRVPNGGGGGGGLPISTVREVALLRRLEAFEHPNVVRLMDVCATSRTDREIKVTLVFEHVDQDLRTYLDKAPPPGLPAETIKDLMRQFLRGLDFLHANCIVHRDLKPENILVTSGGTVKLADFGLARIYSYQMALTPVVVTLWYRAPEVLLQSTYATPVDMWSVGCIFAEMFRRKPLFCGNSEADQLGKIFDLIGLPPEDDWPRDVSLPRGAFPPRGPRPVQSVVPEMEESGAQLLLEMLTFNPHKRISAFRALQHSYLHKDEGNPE
Chain of Cyclin-dependent kinase 4/cyclin D1 (P24385 whole entry, further chain): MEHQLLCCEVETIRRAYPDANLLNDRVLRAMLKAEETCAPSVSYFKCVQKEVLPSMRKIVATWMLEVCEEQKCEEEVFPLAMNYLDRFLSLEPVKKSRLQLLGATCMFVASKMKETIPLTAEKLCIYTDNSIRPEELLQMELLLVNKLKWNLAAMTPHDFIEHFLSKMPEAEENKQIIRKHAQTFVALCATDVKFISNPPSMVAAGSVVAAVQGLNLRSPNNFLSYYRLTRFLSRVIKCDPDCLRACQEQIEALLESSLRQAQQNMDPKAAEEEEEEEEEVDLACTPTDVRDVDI

Structure (SMILES): O=C1Nc2cc(Br)ccc2/C1=C1/Nc2ccccc2/C1=N\O [6BIO]
- Activity [1]: 80%
- Activity [2]: 80%
- Activity [3]: 75%

Structure (SMILES): O=C1Nc2ccccc2/C1=C1/Nc2ccccc2/C1=N\OCC1CO1 (stereo unspecified)
- IC50 [4]: 160 nM
- IC50 [5]: 70 nM

Structure (SMILES): O=C1Nc2ccccc2/C1=C1/Nc2ccccc2/C1=N\O
- IC50 [6]: 3000 nM
- IC50 [7]: 101 nM
- IC50 [8]: 3300 nM
- IC50 [9]: 4400 nM
- IC50 [10]: 300 nM
- IC50 [11]: 380 nM
- IC50 [12]: 440 nM
- IC50 [13]: 79 nM
- IC50 [14]: 3330 nM
- GI50 [15]: 36600 nM
- IC50 [16]: 30 nM
- IC50 [17]: 590 nM
- Activity [18]: 83.5%
- IC50 [19]: 5000 nM
- IC50 [20]: 250 nM
- IC50 [21]: 360 nM
- IC50 [22]: 1480 nM
- IC50 [23]: 101 nM
- IC50 [24]: 310 nM
- Activity [25]: 66.7%
- IC50 [26]: 2500 nM
- IC50 [27]: 4700 nM

Structure (SMILES): O=C1Nc2c(Br)cccc2/C1=C1/Nc2ccccc2/C1=N\O
- IC50 [28]: 32000 nM
- IC50 [29]: 4600 nM
- IC50 [30]: 4100 nM
- IC50 [31]: 100 nM

Structure (SMILES): COc1ccc2c(c1)/C(=C1/Nc3ccccc3/C1=N\O)C(=O)N2
- Activity [32]: 60%

Structure (SMILES): O=C1Nc2ccc(C(=O)O)cc2/C1=C1/Nc2ccccc2/C1=N\O
- GI50 [33]: > 1000 nM
- IC50 [23]: 7.89 nM
- IC50 [34]: 7.89 nM

Structure (SMILES): O=C1Nc2ccccc2/C1=C1/Nc2ccccc2/C1=N\OCC(O)CO (stereo unspecified)
- IC50 [35]: < 100 nM
- Activity [36]: 49.3%
- IC50 [37]: 950 nM
- IC50 [38]: 900 nM
- Activity [39]: 46.8%
- IC50 [40]: 950 nM
